Tested on: HUVEC cells
Experiment: Test of in vitro proliferation of HUVEC cells induced with FGF-2
Type: cell-based
Settings: Homo sapiens, FGF-2 1 ng/ml induced proliferation, ATP luminescence, head says M, cells print nM
Procedure: The compounds according to the invention underwent biochemical studies in order to determine their capacity to inhibit the enzyme methionine-aminopeptidase2 (enzymatic test on isolated enzyme). […] Consequently, the compounds of the invention that show good activity in the MetAP2 enzymatic test were evaluated in a test of in vitro proliferation of HUVEC cells induced with FGF-2. […] After incubation for 48 hours, the medium is aspirated and replaced with the deprivation medium RPMI1640 mentioned previously. A second stimulation is then performed. The cells are again incubated at 37° C. in the presence of CO2. After incubation for 72 hours, the medium is again aspirated and 100 μl of Cell Titer-GLOTM Luminescent Cell Viability Assay (Promega, G7571) are added over 10 minutes. The amount of ATP present in the cells, measured using a luminometer, is proportional to the number cells per well corresponding to the cell proliferation.

SMILES | IC50
O=c1c2cn[nH]c2c2ccc(-c3ccccc3F)cc2n1CC(F)(F)F [Compound 3, 7-(2-fluorophenyl)-5-(2,2,2-trifluoroethyl)-1,5-dihydro-4H-pyrazolo[4,3-c]quinolin-4-one] | 660 nM
Cc1cc(-c2ccc3c4[nH]ncc4c(=O)n(CC(F)(F)F)c3c2)ccn1 [Compound 186, 7-(2-methylpyrid-4-yl)-5-(2,2,2-trifluoroethyl)-1,5-dihydro-4H-pyrazolo[4,3-c]quinolin-4-one] | 360 nM

From US9169246B2, “Pyrazoloquinolinone derivatives, preparation thereof and therapeutic use thereof” (SANOFI, priority 2011, dated 2015)
